Activity calls are given as the source filed them. No cut-off for these calls is given here.
How the values were obtained:
[1] = Stabilization of microtubule by fluorescence microscopy
[2] = Stabilization of microtubule using Cy3-streptavidin-tagged compound by fluorescence microscopy
Tubulin = Tubulin (Sus scrofa, UniProt P02554+P02550); experiment: Induction of porcine brain tubulin polymerization after 20 mins by Bradford assay

Row | Activity [1] | Activity [2] | EC50 (Tubulin) | SMILES
1 | Active | Active | 680 nM | CC(=O)O[C@H]1C(=O)[C@]2(C)[C@@H](OC(=O)CCNC(=O)CCCCCNC(=O)CCCCCNC(=O)CCCC[C@@H]3SC[C@@H]4NC(=O)N[C@@H]43)C[C@H]3OC[C@@]3(OC(C)=O)[C@H]2[C@H](OC(=O)c2ccccc2)[C@]2(O)C[C@H](OC(=O)[C@H](O)[C@@H](NC(=O)c3ccccc3)c3ccccc3)C(C)=C1C2(C)C
2 | Active |  | 520 nM | CC(=O)O[C@H]1C(=O)[C@@]2(C)[C@H]([C@H](OC(=O)c3ccccc3)[C@]3(O)C[C@H](OC(=O)[C@H](O)[C@@H](NC(=O)c4ccccc4)c4ccccc4)C(C)=C1C3(C)C)[C@]1(OC(C)=O)CO[C@@H]1C[C@@H]2O [PACLITAXEL]

Reference: ChEMBL document CHEMBL2151024, “Synthesis and Biological Evaluation of a Biotinylated Paclitaxel With an Extra-Long Chain Spacer Arm” (ACS Med Chem Lett, 2012)
